Several values for one entry are separate records, joined by “and”; a condition that tells them apart may be missing. Equal values may be shown once.
Legend:
Format in all cases: in vivo, human
[1] = tested on: subjects with T2DM and renal impairment; assay: Phase 2a: total daily insulin dose adjustment
Description: The effect of Cotadutide on insulin dose adjustment was evaluated for subjects on ≥20 U/day insulin. […] The mean percent reduction in total daily insulin dose from baseline until the end of dosing was statistically significant compared to placebo, especially in the HbA1c<8.0% subgroup (Table 15).

[2] = tested on: subjects with T2DM and renal impairment; assay: Phase 2a: adverse events
Description: Only serious adverse events (SAEs) associated with protocol-related procedures were collected form time of signature of informed consent until the stat of the treatment period. All adverse events (AEs) were collected during the treatment period and follow-up period (Day 60±5). AEs and SAEs were graded by severity and relationship to Cotadutide or placebo, and SAEs were assessed for relationship to protocol procedures.

[3] = tested on: patients with T2DM and chronic kidney disease (CKD) stage G3; assay: Phase 2a: C-peptide levels; settings: over 32 days; P<0.001
Description: Over 32 days, 21 patients received once-daily subcutaneous cotadutide (n=21) titrated up to 300 μg, and 20 patients received placebo (PBO). […] Serious adverse events (AEs) were balanced between treatment arms; treatment-related AEs were more frequent with cotadutide (71%) vs PBO (35%). The most common AEs were nausea (cotadutide, 33%; PBO, 20%) and vomiting (cotadutide, 24%; PBO, 5%). […] Thus, in patients with T2DM and chronic kidney disease, cotadutide improved overall glycemic control and glucose responses to an MMTT with acceptable tolerability. Improvements in albuminuria indicate that cotadutide can slow long-term progression of CKD.

[4] = tested on: subjects with T2DM and renal impairment; assay: Phase 2a: eGFR (CKD-EPI equation); settings: Day 33 / after 32 days
Excerpt: Inclusion criteria: • Male and female subjects, aged ≥18 years and <85 years at screening; • Body mass index (BMI) between 25 kg/m^2 and 40 kg/m^2 (inclusive) at screening; • HbA1c range of 6.5% to 10.5% (inclusive) at the time of screening; • Diagnosed with T2DM with glucose control managed with any insulin and/or oral therapy combination where no significant dose changes of oral therapy of more than 50% had occurred in the 3 months prior to screening (at least 50% of the subject N=20) enrolled were required to have been taking insulin at a total daily dose of ≥20 units); • Renal impairment with eGFR ≥30 and <60 mL/min/1.73 m^2 at screening. Approximately 16 subjects (40%) were required to have a screening eGFR ≥45 and <60 mL/min/1.73 m^2 (in order to ensure subjects at both ends of the moderate renal impairment spectrum were adequately represented). eGFR was determined by the chronic kidney disease-epidemiology collaboration (CKD-EPI) equation. (eGFR=141×min(SCr/κ, 1)^α×max (SCr/κ, 1)^[…]^Age×1.018 [if female]×1.159 [if Black]; wherein SCr (standardized serum creatinine)=mg/dL, κ=0.7 (females) or 0.9 (males), α=−0.329 (females) or −0.411 (males), min=indicates the minimum of SCr/κ or 1, max=indicates the maximum of SCr/κ or 1, and age=years)

[5] = tested on: subjects with T2DM and renal impairment; assay: Phase 2a: anti-drug antibody (ADA) screening assay
Description: Blood samples were collected to evaluate anti-drug antibody (ADA) response to Cotadutide. A screening assay in the form of a traditional ligand-binding “birding” assay using electrochemiluminescence was used to determine ADA-positive samples.
Development of ADA and titres (in any subjects testing positive) were assessed (As-treated population). No subjects tested positive for ADA at baseline. A total of 2 subjects (4.9%) were ADA positive post-baseline (both subjects [9.5%] in the Cotadutide dose group). […] 1 subject was ADA positive at Day 12 (titer ≤5) but negative at subsequent visits. One subject was ADA positive at Day 32 (titer=2560) and remained positive at the Day 60 follow-up visit (titer=160); at 6 months after their last visit; the antibody titer was 10, and therefore, no additional follow-up was deemed necessary for this subject.

Phase 2a: body weight = settings: for Weight, Absolute Change From Day 1, Difference in LS Mean Change (vs Placebo) / Weight, Absolute Change From Day 1, LS Mean Change / Weight, Percent Change from Day 1, Difference in LS Mean Change (vs Placebo) / Weight, Percent Change from Day 1, LS Mean Change: ANCOVA; for Weight, Absolute Change From Day 1, Difference in LS Mean Change (vs Placebo) / Weight, Absolute Change From Day 1, LS Mean Change / Weight, Percent Change from Day 1, Difference in LS Mean Change (vs Placebo) / Weight, Percent Change from Day 1, LS Mean Change / Weight, Absolute Change From Day 1, Mean / Weight, Absolute Change From Day 1, Median / Weight, Percent Change from Day 1, Mean / Weight, Percent Change from Day 1, Median / Weight, End of Dosing (Day 33), Mean / Weight, End of Dosing (Day 33), Median: ITT
Description: Cotadutide was titrated from 50 μg up to 300 μg and administered once daily by subcutaneous (SC) injection over 32 days.
Cotadutide was administered at 50 μg once daily for 4 days, followed by 100 μg daily for 7 days, 200 μg daily for 7 days, and 300 μg daily for 14 days (n=20). Placebo was administered one daily for 32 days (n=20). Cotadutide and placebo were administered in the morning. Dosing commenced following predose baseline vital signs, blood tests (including HbA1c), an electrocardiogram (ECG), body weight measurement, and bioimpedance spectroscopy (BIS). Subjects then returned for daily dosing or remained overnight locally until Day 5, and thereafter, had visits at weekly intervals until a maintenance dose of 300 μg was established. Thus, Cotadutide or placebo was administered at the study site by study personal for the first four doses and on site on Days 5, 12, 19, and 32. At all other times, subjects preformed dosing at home.
Weight was measured after the subject had toileted and removed bulky clothing, including shoes. Whenever possible, the same calibrated scale was used for each measurement for any given subject.

[6] = Day 1 to Day 33, Insulin Dose < 20 U/day subgroup
[7] = Day 1 to Day 33, Insulin Dose ≥ 20 U/day subgroup
[8] = Insulin Dose < 20 U/day subgroup
[9] = Insulin Dose ≥ 20 U/day subgroup

## CCCCCCCCCCCCCCCC(=O)N[C@@H](CCC(=O)NCCCC[C@H](NC(=O)[C@H](CC(=O)O)NC(=O)[C@H](CO)NC(=O)[C@@H](NC(=O)[C@H](Cc1ccccc1)NC(=O)[C@@H](NC(=O)CNC(=O)[C@H](CCC(N)=O)NC(=O)[C@H](CO)NC(=O)[C@@H](N)Cc1c[nH]cn1)[C@@H](C)O)[C@@H](C)O)C(=O)N[C@@H](CO)C(=O)N[C@@H](CCC(=O)O)C(=O)N[C@@H](Cc1ccc(O)cc1)C(=O)N[C@@H](CC(C)C)C(=O)N[C@@H](CC(=O)O)C(=O)N[C@@H](CO)C(=O)N[C@@H](CCC(=O)O)C(=O)N[C@@H](CCCNC(=N)N)C(=O)N[C@@H](C)C(=O)N[C@@H](CCCNC(=N)N)C(=O)N[C@@H](CC(=O)O)C(=O)N[C@@H](Cc1ccccc1)C(=O)N[C@H](C(=O)N[C@@H](C)C(=O)N[C@@H](Cc1c[nH]c2ccccc12)C(=O)N[C@@H](CC(C)C)C(=O)N[C@@H](CCC(=O)O)C(=O)N[C@@H](C)C(=O)NCC(=O)NCC(=O)O)C(C)C)C(=O)O [Cotadutide]
[1]; over 32 days, P=0.012
  reduction in insulin dose: 35.2%
[1]; participants with insulin dose of at least 20 U/day, Day −2 to end of treatment
  percentage reduction from baseline in total daily insulin dose at the end of treatment: −35.2%
[2]; diabetic ketoacidosis and cholecystitis, deemed related
  deaths: one death
[2]; in vivo
  Serious adverse events (SAEs) vs placebo: balanced
  TEAE that led to withdrawal: two subjects
  incidence of overall TEAEs and product-related TEAEs vs placebo: higher
  most frequently reported TEAEs (preferred term): nausea, vomiting, diarrhea, and dyspepsia
  nausea, frequency: 33%
  treatment-related AEs, frequency: 71%
  vomiting, frequency: 24%
[3]
  C-peptide levels, LS mean change vs PBO: 0.88 µg/L
[4]
  change in eGFR from baseline to end of dosing vs placebo: No statistically significant difference
[4]; listed as cotadutide
  change in eGFR from baseline to end of dosing vs placebo: no significant changes
[5]; 6 months after last visit
  ADA titer, one subject: 10
[5]; As-treated population
  subjects ADA positive post-baseline, number: 2 subjects
  subjects ADA positive post-baseline, percentage of dose group: 9.5%
[5]; Day 12, negative at subsequent visits
  ADA titer, one subject: ≤ 5
[5]; Day 32
  ADA titer, one subject: 2560
[5]; Day 60 follow-up visit
  ADA titer, one subject: 160
[5]; baseline titer boosted 4-fold or higher
  treatment-boosted ADA: No subjects
Phase 2a: body weight; <20 U/day Insulin group
  weight loss, percentage: −5.38%
Phase 2a: body weight; [6]
  Weight, Absolute Change From Day 1, Difference in LS Mean Change (vs Placebo): -3.99 kg
  Weight, Absolute Change From Day 1, LS Mean Change: -4.72 kg
  Weight, Percent Change from Day 1, Difference in LS Mean Change (vs Placebo): −4.74%
  Weight, Percent Change from Day 1, LS Mean Change: −5.38%
  Weight, Absolute Change From Day 1, Mean: -4.74 kg
  Weight, Absolute Change From Day 1, Median: -4.50 kg
  Weight, Percent Change from Day 1, Mean: −5.26%
  Weight, Percent Change from Day 1, Median: −4.53%
Phase 2a: body weight; [7]
  Weight, Absolute Change From Day 1, Difference in LS Mean Change (vs Placebo): -2.79 kg
  Weight, Absolute Change From Day 1, LS Mean Change: -2.66 kg
  Weight, Percent Change from Day 1, Difference in LS Mean Change (vs Placebo): −2.66%
  Weight, Percent Change from Day 1, LS Mean Change: −2.69%
  Weight, Absolute Change From Day 1, Mean: -2.60 kg
  Weight, Absolute Change From Day 1, Median: -1.90 kg
  Weight, Percent Change from Day 1, Mean: −2.61%
  Weight, Percent Change from Day 1, Median: −2.00%
Phase 2a: body weight; Day 1 to Day 33, Total
  Weight, Absolute Change From Day 1, Difference in LS Mean Change (vs Placebo): -3.28 kg
  Weight, Absolute Change From Day 1, LS Mean Change: -3.41 kg
  Weight, Percent Change from Day 1, Difference in LS Mean Change (vs Placebo): −3.47%
  Weight, Percent Change from Day 1, LS Mean Change: −3.69%
  Weight, Absolute Change From Day 1, Mean: -3.39 kg
  Weight, Absolute Change From Day 1, Median: -3.60 kg
  Weight, Percent Change from Day 1, Mean: −3.59%
  Weight, Percent Change from Day 1, Median: −3.68%
Phase 2a: body weight; Day 1 to Day 33, all subjects
  LS mean reduction in absolute body weight: -3.41 kg
  LS mean reduction in percentage body weight: −3.69% and −3.7%
Phase 2a: body weight; [8]
  Weight, End of Dosing (Day 33), Mean: 91.27 kg
  Weight, End of Dosing (Day 33), Median: 88.70 kg
Phase 2a: body weight; [9]
  Weight, End of Dosing (Day 33), Mean: 94.13 kg
  Weight, End of Dosing (Day 33), Median: 96.15 kg
Phase 2a: body weight; Total
  Weight, End of Dosing (Day 33), Mean: 93.08 kg
  Weight, End of Dosing (Day 33), Median: 94.10 kg
Phase 2a: body weight; ≥20 U/day Insulin group
  weight loss, percentage: −2.69%

Reference: patent US20210213104A1, “GLUCAGON AND GLP-1 CO-AGONISTS FOR THE TREATMENT OF CHRONIC KIDNEY DISEASE AND DIABETIC KIDNEY DISEASE IN TYPE 2 DIABETES” (MEDIMMUNE LIMITED, priority 2020, published 2021)
